According to patent publication US6472348B1, “Pyridone derivatives and herbicides” (Kumiai Chemical Industry Co., Ltd., priority 1996, dated 2002):

Key:
slender amaranth (Am) [1] = assay: Test Example 2: herbicidal effects by upland field soil treatment; format: in vivo; conditions: 100 g of the active ingredient per 10 ares, 21st day after the application, index 0-5 of Table 47;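 note: grade of growth control; 5 = at least 90%; 4 = 70 to 90%; 3 = 50 to 70%; 2 = 30 to 50%; 1 = 10 to 30%; 0 = under 10%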
Source text: (§1) (Test on Herbicidal Effects by Upland Field Soil Treatment)

[2] = test system: common lambsquarters (Ch); assay: as above; format: in vivo; conditions: 100 g of the active ingredient per 10 ares, 21st day after the application, index 0-5 of Table 47
Source text: as §1

barnyardgrass (Ec) [3] = assay: as above; format: in vivo; conditions: 100 g of the active ingredient per 10 ares, 21st day after the application, index 0-5 of Table 47
Source text: as §1

Digitaria ciliaris (Di) = assay: as above; format: in vivo; conditions: 100 g of the active ingredient per 10 ares, 21st day after the application, index 0-5 of Table 47
Source text: as §1

pale smartweed (Po) [4] = assay: as above; format: in vivo; conditions: 100 g of the active ingredient per 10 ares, 21st day after the application, index 0-5 of Table 47
Source text: as §1

rice flatsedge (Ci) [5] = assay: as above; format: in vivo; conditions: 100 g of the active ingredient per 10 ares, 21st day after the application, index 0-5 of Table 47
Source text: as §1

corn (Ze) [6] = assay: Test Example 11: crop plant selectivity by upland field foliage treatment (corn), phytotoxicity; conditions: upland field foliage treatment, dose 1.6 g ai/10a, 14th day after treatment
Protocol: (§2) (Test on Crop Plant Selectivity by Upland Field Foliage Treatment)
(§3) In a plastic pot (surface area: 600 cm^2) filled with sand, corn (Ze), pale smartweed (Po), slender amaranth (Am), common lambsquarters (Ch) and China jute (Ab) were sown and cultured in a green house for 2 weeks. […] The plants were then cultured in a green house, and the evaluation of the herbicidal effects and phytotoxicity was conducted on the 14th day after the treatment in accordance with the standards as identified in Table 47.

monochoria (Mo) = assay: Test Example 1: herbicidal effects by paddy field soil treatment; format: in vivo; conditions: 100 g of the active ingredient per 10 ares, 21st day after the application, index 0-5 of Table 47;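 note: grade of growth control; 5 = at least 90%; 4 = 70 to 90%; 3 = 50 to 70%; 2 = 30 to 50%; 1 = 10 to 30%; 0 = under 10%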
Procedure, shortened: (§4)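 Herbicidal effect was scored against a graded standard 21 days after treatment. Seeds were sown in puddled, leveled paddy soil flooded to 3 cm depth, and the active ingredient was applied at 100 g per 10 ares before greenhouse culture.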

barnyardgrass (Ec) [7] = assay: as above; format: in vivo; conditions: 100 g of the active ingredient per 10 ares, 21st day after the application, index 0-5 of Table 47
Procedure, shortened: as §4

bulrush (Sc) = assay: as above; format: in vivo; conditions: 100 g of the active ingredient per 10 ares, 21st day after the application, index 0-5 of Table 47;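 note: grade of growth control; 5 = at least 90%; 4 = 70 to 90%; 3 = 50 to 70%; 2 = 30 to 50%; 1 = 10 to 30%; 0 = under 10%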
Procedure, shortened: as §4

slender amaranth (Am) [8] = assay: Test Example 11: crop plant selectivity by upland field foliage treatment (corn), herbicidal effects; format: in vivo; parameters: scale not given here; conditions: upland field foliage treatment (corn test), dose 1.6 g ai/10a, 14th day after treatment
Protocol: as §2, §3

[9] = test system: common lambsquarters (Ch); assay: as above; format: in vivo; parameters: scale not given here; conditions: upland field foliage treatment (corn test), dose 1.6 g ai/10a, 14th day after treatment
Protocol: as §2, §3

pale smartweed (Po) [10] = assay: as above; format: in vivo; parameters: scale not given here; conditions: upland field foliage treatment (corn test), dose 1.6 g ai/10a, 14th day after treatment
Protocol: as §2, §3

China jute (Ab) [11] = assay: as above; format: in vivo; parameters: scale not given here; conditions: upland field foliage treatment (corn test), dose 1.6 g ai/10a, 14th day after treatment
Protocol: as §2, §3

slender amaranth (Am) [12] = assay: Test Example 3: herbicidal effects by upland field foliage treatment; format: in vivo; parameters: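 grade of growth control; 5 = at least 90%; 4 = 70 to 90%; 3 = 50 to 70%; 2 = 30 to 50%; 1 = 10 to 30%; 0 = under 10%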; conditions: 100 g of the active ingredient per 10 ares, evaluated on the 14th day after treatment
Procedure, shortened: (§5)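 Test plants had been raised from seed for 2 weeks in a greenhouse, in soil-covered sand pots of 120 cm^2, and were returned there after spraying.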

[13] = test system: common lambsquarters (Ch); assay: as above; format: in vivo; parameters: scale not given here; conditions: 100 g of the active ingredient per 10 ares, evaluated on the 14th day after treatment
Procedure, shortened: as §5

barnyardgrass (Ec) [14] = assay: as above; format: in vivo; parameters: scale not given here; conditions: 100 g of the active ingredient per 10 ares, evaluated on the 14th day after treatment
Procedure, shortened: as §5

Diaitaria ciliaris (Di) = assay: as above; format: in vivo; parameters: scale not given here; conditions: 100 g of the active ingredient per 10 ares, evaluated on the 14th day after treatment
Procedure, shortened: as §5

pale smartweed (Po) [15] = assay: as above; format: in vivo; parameters: scale not given here; conditions: 100 g of the active ingredient per 10 ares, evaluated on the 14th day after treatment
Procedure, shortened: as §5

rice flatsedge (Ci) [16] = assay: as above; format: in vivo; parameters: scale not given here; conditions: 100 g of the active ingredient per 10 ares, evaluated on the 14th day after treatment
Procedure, shortened: as §5

slender amaranth (Am) [17] = assay: Test Example 5: crop plant selectivity by upland field soil treatment (wheat), herbicidal effects; format: in vivo; parameters: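 grade of growth control; 5 = at least 90%; 4 = 70 to 90%; 3 = 50 to 70%; 2 = 30 to 50%; 1 = 10 to 30%; 0 = under 10%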; conditions: dose 6.3 g ai/10a, 21st day after application
Procedure, shortened: (§6)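 Upland soil-treatment selectivity test: crop and weed seeds are sown together in sand-filled pots, soil-covered, then treated and grown under glass until rating at 21 days.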

[18] = test system: common lambsquarters (Ch); assay: as above; format: in vivo; parameters: scale not given here; conditions: dose 6.3 g ai/10a, 21st day after application
Procedure, shortened: as §6

green foxtail (Se) [19] = assay: as above; format: in vivo; parameters: scale not given here; conditions: dose 6.3 g ai/10a, 21st day after application
Procedure, shortened: as §6

pale smartweed (Po) [20] = assay: as above; format: in vivo; parameters: scale not given here; conditions: dose 6.3 g ai/10a, 21st day after application
Procedure, shortened: as §6

China jute (Ab) [21] = assay: as above; format: in vivo; parameters: scale not given here; conditions: dose 6.3 g ai/10a, 21st day after application
Procedure, shortened: as §6

wheat (Tr) = assay: Test Example 5: crop plant selectivity by upland field soil treatment (wheat), phytotoxicity; format: in vivo; parameters: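 grade of crop injury; 5 = at least 90%; 4 = 70 to 90%; 3 = 50 to 70%; 2 = 30 to 50%; 1 = 10 to 30%; 0 = under 10%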; conditions: dose 6.3 g ai/10a, 21st day after application
Procedure, shortened: as §6

slender amaranth (Am) [22] = assay: Test Example 6: crop plant selectivity by upland field soil treatment (soybean), herbicidal effects; format: in vivo; parameters: scale not given here; conditions: dose 6.3 g ai/10a, 21st day after application
Procedure, shortened: (§7)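 Seeds are sown in sand and covered with soil. The soil is treated with test compound. Pots are kept in a greenhouse. Weed control and soybean damage are rated visually 21 days after application.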

[23] = test system: common lambsquarters (Ch); assay: as above; format: in vivo; parameters: scale not given here; conditions: dose 6.3 g ai/10a, 21st day after application
Procedure, shortened: as §7

green foxtail (Se) [24] = assay: as above; format: in vivo; parameters: scale not given here; conditions: dose 6.3 g ai/10a, 21st day after application
Procedure, shortened: as §7

pale smartweed (Po) [25] = assay: as above; format: in vivo; parameters: scale not given here; conditions: dose 6.3 g ai/10a, 21st day after application
Procedure, shortened: as §7

China jute (Ab) [26] = assay: as above; format: in vivo; parameters: scale not given here; conditions: dose 6.3 g ai/10a, 21st day after application
Procedure, shortened: as §7

slender amaranth (Am) [27] = assay: Test Example 7: crop plant selectivity by upland field soil treatment (corn), herbicidal effects; format: in vivo; parameters: scale not given here; conditions: dose 6.3 g ai/10a, 21st day after application
Procedure, shortened: (§8)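 Greenhouse pot test in sand with soil cover over seeds of corn and weeds sown together; scored 21 d after treatment.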

[28] = test system: common lambsquarters (Ch); assay: as above; format: in vivo; parameters: scale not given here; conditions: dose 6.3 g ai/10a, 21st day after application
Procedure, shortened: as §8

green foxtail (Se) [29] = assay: as above; format: in vivo; parameters: scale not given here; conditions: dose 6.3 g ai/10a, 21st day after application
Procedure, shortened: as §8

pale smartweed (Po) [30] = assay: as above; format: in vivo; parameters: scale not given here; conditions: dose 6.3 g ai/10a, 21st day after application
Procedure, shortened: as §8

China jute (Ab) [31] = assay: as above; format: in vivo; parameters: scale not given here; conditions: dose 6.3 g ai/10a, 21st day after application
Procedure, shortened: as §8

slender amaranth (Am) [32] = assay: Test Example 4: crop plant selectivity by upland field soil treatment (cotton), herbicidal effects; format: in vivo; parameters: scale not given here; conditions: dose 6.3 g ai/10 a, evaluated 21st day after application
Procedure, shortened: (§9)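 Cotton is sown alongside weeds in pots of sand, covered with soil, and the soil surface is treated. After greenhouse growth, herbicidal activity and phytotoxicity are graded on the 21st day.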

[33] = test system: common lambsquarters (Ch); assay: as above; format: in vivo; parameters: scale not given here; conditions: dose 6.3 g ai/10 a, evaluated 21st day after application
Procedure, shortened: as §9

green foxtail (Se) [34] = assay: as above; format: in vivo; parameters: scale not given here; conditions: dose 6.3 g ai/10 a, evaluated 21st day after application
Procedure, shortened: as §9

pale smartweed (Po) [35] = assay: as above; format: in vivo; parameters: scale not given here; conditions: dose 6.3 g ai/10 a, evaluated 21st day after application
Procedure, shortened: as §9

China jute (Ab) [36] = assay: as above; format: in vivo; parameters: scale not given here; conditions: dose 6.3 g ai/10 a, evaluated 21st day after application
Procedure, shortened: as §9

soybean (Gl) = assay: Test Example 6: crop plant selectivity by upland field soil treatment (soybean), phytotoxicity; format: in vivo; parameters: scale not given here; conditions: dose 6.3 g ai/10a, 21st day after application
Procedure, shortened: as §7

cotton (Go) = assay: Test Example 4: crop plant selectivity by upland field soil treatment (cotton), phytotoxicity; format: in vivo; parameters: scale not given here; conditions: dose 6.3 g ai/10 a, evaluated 21st day after application
Procedure, shortened: as §9

corn (Ze) [37] = assay: Test Example 7: crop plant selectivity by upland field soil treatment (corn), phytotoxicity; format: in vivo; parameters: scale not given here; conditions: dose 6.3 g ai/10a, 21st day after application
Procedure, shortened: as §8

## CC(C)OC(=O)c1cc(-c2ccc(C(F)(F)F)n(C)c2=O)c(F)cc1Cl [Compound No. 1-66, isopropyl 5-(1-methyl-6-trifluoromethyl-2(1H)-pyridon-3-yl)-2-chloro-4-fluorobenzoate]
Slender amaranth (Am) [1]
  Herbicidal effects Am: 5
[2]
  Herbicidal effects Ch: 5
Barnyardgrass (Ec) [3]
  Herbicidal effects Ec: 5
Digitaria ciliaris (Di)
  Herbicidal effects Di: 5
Pale smartweed (Po) [4]
  Herbicidal effects Po: 5
Rice flatsedge (Ci) [5]
  Herbicidal effects Ci: 5
Corn (Ze) [6]
  Phytotoxicity Ze: 2
Monochoria (Mo)
  Herbicidal effects Mo: 5
Barnyardgrass (Ec) [7]
  Herbicidal effects Ec: 5
Bulrush (Sc)
  Herbicidal effects Sc: 5
Slender amaranth (Am) [8]
  Herbicidal effects Am: 5
[9]
  Herbicidal effects Ch: 5
Pale smartweed (Po) [10]
  Herbicidal effects Po: 5
China jute (Ab) [11]
  Herbicidal effects Ab: 5
Slender amaranth (Am) [12]
  Herbicidal effects Am: 5
[13]
  Herbicidal effects Ch: 5
Barnyardgrass (Ec) [14]
  Herbicidal effects Ec: 5
Diaitaria ciliaris (Di)
  Herbicidal effects Di: 5
Pale smartweed (Po) [15]
  Herbicidal effects Po: 5
Rice flatsedge (Ci) [16]
  Herbicidal effects Ci: 5

## CSc1cc(-c2ccc(C(F)(F)F)n(C)c2=O)c(F)cc1Cl [Compound No. 1-87, 3-(4-chloro-2-fluoro-5-methylthiophenyl)-1-methyl-6-trifluoromethyl-2(1H)-pyridone]
Slender amaranth (Am) [17]
  Herbicidal effects Am: 5
[18]
  Herbicidal effects Ch: 5
Green foxtail (Se) [19]
  Herbicidal effects Se: 5
Pale smartweed (Po) [20]
  Herbicidal effects Po: 5
China jute (Ab) [21]
  Herbicidal effects Ab: 5
Slender amaranth (Am) [1]
  Herbicidal effects Am: 5
[2]
  Herbicidal effects Ch: 5
Barnyardgrass (Ec) [3]
  Herbicidal effects Ec: 5
Digitaria ciliaris (Di)
  Herbicidal effects Di: 5
Pale smartweed (Po) [4]
  Herbicidal effects Po: 5
Rice flatsedge (Ci) [5]
  Herbicidal effects Ci: 5
Wheat (Tr)
  Phytotoxicity Tr: 1
Monochoria (Mo)
  Herbicidal effects Mo: 5
Barnyardgrass (Ec) [7]
  Herbicidal effects Ec: 5
Bulrush (Sc)
  Herbicidal effects Sc: 5
Slender amaranth (Am) [22]
  Herbicidal effects Am: 5
[23]
  Herbicidal effects Ch: 5
Green foxtail (Se) [24]
  Herbicidal effects Se: 5
Pale smartweed (Po) [25]
  Herbicidal effects Po: 5
China jute (Ab) [26]
  Herbicidal effects Ab: 5
Slender amaranth (Am) [27]
  Herbicidal effects Am: 5
[28]
  Herbicidal effects Ch: 5
Green foxtail (Se) [29]
  Herbicidal effects Se: 5
Pale smartweed (Po) [30]
  Herbicidal effects Po: 5
China jute (Ab) [31]
  Herbicidal effects Ab: 5
Slender amaranth (Am) [32]
  Herbicidal effects Am: 5
[33]
  Herbicidal effects Ch: 5
Green foxtail (Se) [34]
  Herbicidal effects Se: 5
Pale smartweed (Po) [35]
  Herbicidal effects Po: 5
China jute (Ab) [36]
  Herbicidal effects Ab: 5
Soybean (Gl)
  Phytotoxicity Gl: 1
Slender amaranth (Am) [12]
  Herbicidal effects Am: 5
[13]
  Herbicidal effects Ch: 5
Barnyardgrass (Ec) [14]
  Herbicidal effects Ec: 5
Diaitaria ciliaris (Di)
  Herbicidal effects Di: 5
Pale smartweed (Po) [15]
  Herbicidal effects Po: 5
Rice flatsedge (Ci) [16]
  Herbicidal effects Ci: 5
Cotton (Go)
  Phytotoxicity Go: 1
Corn (Ze) [37]
  Phytotoxicity Ze: 1
